Test results published in patent US6737383B1, “Herbicidal oxadiazolidines” (priority 1999, dated 2004).

Key:
[1] = test system: bedstraw; experiment: Test B pre/postemergence bedstraw; type: in vivo, Galium aparine
Method in brief: (§1)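 Herbicidal effect was estimated by eye on a ten-point control scale after plants spent twelve to sixteen days in a greenhouse following soil or foliar treatment. Foliar sprays targeted plants at one to four leaves; all doses were formulated in a non-phytotoxic solvent with surfactant.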

[2] = test system: blackgrass; experiment: Test B pre/postemergence blackgrass; type: in vivo, Alopecurus myosuroides
Method in brief: as §1

[3] = test system: surinam grass; experiment: Test B pre/postemergence surinam grass; type: in vivo, Brachiaria decumbens
Method in brief: as §1

[4] = test system: corn; experiment: Test B pre/postemergence corn; type: in vivo, Zea mays
Method in brief: as §1

[5] = test system: crabgrass; experiment: Test B pre/postemergence crabgrass; type: in vivo, Digitaria sanguinalis
Method in brief: as §1

[6] = test system: giant foxtail; experiment: Test B pre/postemergence giant foxtail; type: in vivo, Setaria faberii
Method in brief: as §1

[7] = test system: morningglory; experiment: Test B pre/postemergence morningglory; type: in vivo, Ipomoea hederacea
Method in brief: as §1

[8] = test system: pigweed; experiment: Test B pre/postemergence pigweed; type: in vivo, Amaranthus retroflexus
Method in brief: as §1

[9] = test system: rape; experiment: Test B pre/postemergence rape; type: in vivo, Brassica napus
Method in brief: as §1

[10] = test system: sugar beet; experiment: Test B pre/postemergence sugar beet; type: in vivo, Beta vulgaris
Method in brief: as §1

[11] = test system: wheat; experiment: Test B pre/postemergence wheat; type: in vivo, Triticum aestivum
Method in brief: as §1

[12] = test system: wild oat; experiment: Test B pre/postemergence wild oat; type: in vivo, Avena fatua
Method in brief: as §1

[13] = test system: purple nutsedge; experiment: Test B pre/postemergence purple nutsedge; type: in vivo, Cyperus rotundus
Method in brief: as §1

[14] = test system: rice; experiment: Test B flood test rice; type: in vivo, Oryza sativa
Method in brief: (§2)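 Plants were grown to the 2-leaf stage before treatment with test chemical, then held in a greenhouse for twelve to sixteen days. Injury was visually rated against untreated controls on a 0–10 scale, where 0 is no effect and 10 is complete control.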

[15] = test system: smallflower flatsedge; experiment: Test B flood test smallflower flatsedge; type: in vivo, Cyperus difformis
Method in brief: as §2

[16] = test system: bamyardgrass; experiment: Test B flood test barnyardgrass; type: in vivo, Echinochloa crus-galli
Method in brief: as §2

[17] = Postemergence, Rate 250 g/ha, scale 0 to 10, 0 no effect, 10 complete control
[18] = Preemergence, Rate 62 g/ha, scale 0 to 10 (0 no effect, 10 complete control)
[19] = Preemergence, Rate 125 g/ha, scale 0 to 10 (0 no effect, 10 complete control)
[20] = Preemergence, Rate 250 g/ha, scale of 0 to 10 where 0 is no effect and 10 is complete control
[21] = Preemergence, Rate 500 g/ha, scale 0 (no effect) to 10 (complete control)
[22] = Rate 125 g/ha, Postemergence, scale 0 to 10, 0 no effect, 10 complete control
[23] = Rate 500 g/ha, Postemergence, scale 0 to 10, 0 no effect, 10 complete control
[24] = Postemergence, Rate 62 g/ha, scale 0 to 10, 0 is no effect, 10 is complete control
[25] = Rate 125 g/ha, Postemergence section (flood test species), scale 0 to 10, 0 no effect, 10 complete control
[26] = Rate 500 g/ha, listed under Postemergence (flood test species), scale 0 to 10, 0 no effect, 10 complete control
[27] = flood test, listed under Postemergence, Rate 250 g/ha, scale 0 to 10, 0 no effect, 10 complete control

## Cc1cc(C)c(-n2c(=O)on(C(=O)N(c3ccc(F)cc3)C(C)C)c2=O)c(C)c1 [Compound 60]
[1]; [17]
  Bedstraw plant response rating: 7
[1]; [18]
  Bedstraw plant response rating: 0
[1]; [19]
  Plant response rating, Bedstraw: 0
[1]; [20]
  Plant response rating, Bedstraw: 0
[1]; [21]
  Bedstraw plant response rating: 5
[1]; [22]
  Bedstraw plant response rating: 7
[1]; [23]
  Bedstraw plant response rating: 7
[2]; [24]
  Blackgrass plant response rating: 0
[2]; [17]
  Blackgrass plant response rating: 0
[2]; [18]
  Blackgrass plant response rating: 0
[2]; [19]
  Plant response rating, Blackgrass: 0
[2]; [20]
  Plant response rating, Blackgrass: 0
[2]; [21]
  Blackgrass plant response rating: 0
[2]; [22]
  Blackgrass plant response rating: 0
[2]; [23]
  Blackgrass plant response rating: 0
[3]; [24]
  B. signalgrass plant response rating: 0
[3]; [17]
  B. signalgrass plant response rating: 0
[3]; [18]
  B. signalgrass plant response rating: 0
[3]; [19]
  Plant response rating, B. signalgrass: 0
[3]; [20]
  Plant response rating, B. signalgrass: 0
[3]; [21]
  B. signalgrass plant response rating: 0
[3]; [22]
  B. signalgrass plant response rating: 0
[3]; Rate 500 g/ha, Postemergence, scale of 0 to 10 where 0 is no effect and 10 is complete control
  B. signalgrass plant response rating: 0
[4]; [24]
  Corn plant response rating: 0
[4]; [17]
  Corn plant response rating: 0
[4]; [18]
  Corn plant response rating: 0
[4]; [19]
  Plant response rating, Corn: 0
[4]; [20]
  Plant response rating, Corn: 0
[4]; [21]
  Corn plant response rating: 0
[4]; [22]
  Corn plant response rating: 0
[4]; [23]
  Corn plant response rating: 0
[5]; [24]
  Crabgrass plant response rating: 0
[5]; [17]
  Crabgrass plant response rating: 1
[5]; [18]
  Crabgrass plant response rating: 0
[5]; [19]
  Plant response rating, Crabgrass: 1
[5]; [20]
  Plant response rating, Crabgrass: 1
[5]; [21]
  Crabgrass plant response rating: 1
[5]; [22]
  Crabgrass plant response rating: 0
[5]; [23]
  Crabgrass plant response rating: 2
[6]; [24]
  Giant foxtail plant response rating: 0
[6]; [17]
  Giant foxtail plant response rating: 0
[6]; [18]
  Giant foxtail plant response rating: 3
[6]; [19]
  Plant response rating, Giant foxtail: 3
[6]; [20]
  Plant response rating, Giant foxtail: 4
[6]; [21]
  Giant foxtail plant response rating: 5
[6]; [22]
  Giant foxtail plant response rating: 0
[6]; [23]
  Giant foxtail plant response rating: 0
[7]; [24]
  Morningglory plant response rating: 1
[7]; [17]
  Morningglory plant response rating: 2
[7]; [18]
  Morningglory plant response rating: 0
[7]; [19]
  Plant response rating, Morningglory: 0
[7]; [20]
  Plant response rating, Morningglory: 0
[7]; [21]
  Morningglory plant response rating: 0
[7]; [22]
  Morningglory plant response rating: 2
[7]; [23]
  Morningglory plant response rating: 2
[8]; [24]
  Redroot pigweed plant response rating: 2
[8]; [17]
  Redroot pigweed plant response rating: 4
[8]; [18]
  Redroot pigweed plant response rating: 0
[8]; [19]
  Plant response rating, Redroot pigweed: 0
[8]; [20]
  Plant response rating, Redroot pigweed: 0
[8]; [21]
  Redroot pigweed plant response rating: 0
[8]; [22]
  Redroot pigweed plant response rating: 4
[8]; [23]
  Redroot pigweed plant response rating: 6
[9]; [24]
  Rape plant response rating: 0
[9]; [17]
  Rape plant response rating: 0
[9]; [18]
  Rape plant response rating: 0
[9]; [19]
  Plant response rating, Rape: 0
[9]; [20]
  Plant response rating, Rape: 0
[9]; [21]
  Rape plant response rating: 0
[9]; [22]
  Rape plant response rating: 0
[9]; [23]
  Rape plant response rating: 4
[10]; [24]
  Sugarbeets plant response rating: 0
[10]; [17]
  Sugarbeets plant response rating: 0
[10]; [18]
  Sugarbeets plant response rating: 0
[10]; [19]
  Plant response rating, Sugarbeets: 0
[10]; [20]
  Plant response rating, Sugarbeets: 3
[10]; [21]
  Sugarbeets plant response rating: 5
[10]; [22]
  Sugarbeets plant response rating: 0
[10]; [23]
  Sugarbeets plant response rating: 0
[11]; [24]
  Wheat plant response rating: 0
[11]; [17]
  Wheat plant response rating: 0
[11]; [18]
  Wheat plant response rating: 0
[11]; [19]
  Plant response rating, Wheat: 0
[11]; [20]
  Plant response rating, Wheat: 0
[11]; [21]
  Wheat plant response rating: 0
[11]; [22]
  Wheat plant response rating: 0
[11]; [23]
  Wheat plant response rating: 0
[12]; [24]
  Wild oats plant response rating: 0
[12]; [17]
  Wild oats plant response rating: 0
[12]; [18]
  Wild oats plant response rating: 0
[12]; [19]
  Plant response rating, Wild oats: 0
[12]; [20]
  Plant response rating, Wild oats: 0
[12]; [21]
  Wild oats plant response rating: 0
[12]; [22]
  Wild oats plant response rating: 0
[12]; [23]
  Wild oats plant response rating: 0
[13]; [24]
  Nutsedge plant response rating: 0
[13]; [17]
  Nutsedge plant response rating: 0
[13]; [18]
  Nutsedge plant response rating: 0
[13]; [19]
  Plant response rating, Nutsedge: 0
[13]; [20]
  Plant response rating, Nutsedge: 0
[13]; [21]
  Nutsedge plant response rating: 0
[13]; [22]
  Nutsedge plant response rating: 0
[13]; [23]
  Nutsedge plant response rating: 0
[14]; [24]
  Rice plant response rating: 0
[14]; [25]
  Rice plant response rating: 0
[14]; [26]
  Rice plant response rating: 0
[14]; [27]
  Rice plant response rating: 0
[15]; [24]
  S. Flatsedge plant response rating: 0
[15]; [25]
  S. Flatsedge plant response rating: 0
[15]; [26]
  S. Flatsedge plant response rating: 0
[15]; [27]
  S. Flatsedge plant response rating: 0
[16]; [24]
  Barnyardgrass plant response rating: 0
[16]; [25]
  Barnyardgrass plant response rating: 0
[16]; [26]
  Barnyardgrass plant response rating: 0
[16]; [27]
  Barnyardgrass plant response rating: 0
